“Also recorded” adds a separate entry of the source. Read-outs that look alike come from different tables or passages of the source. Each block holds one molecule with its values, some of them ahead of it.
What was measured:
nine cancer cell lines = test: MTT cytotoxicity, over the nine cancer cell lines
HCT-15 cells = test: MTT cytotoxicity assay, HCT-15; format: cell-based, human
Protocol: (§1) Cisplatin (CDDP) and oxaliplatin (OXP) were dissolved just before the experiment in a 0.9% NaCl solution. […]
(§2) Cancer Res. 1988, 48, 589-601]. […] Triplicate cultures were established for each treatment.
(§3) MTT assay. […] Triplicate cultures were established for each treatment.
(§4) The two dimers, 3a and 3b, as well as compounds 1a and 2a were screened against six human cancer cell lines representative of lung (H157), colon (HCT-15), cervical (A431), ovarian (2008) and pancreatic (PSN1) cancers, along with melanoma (A375). Cytotoxicity was evaluated by means of the MTT test after 72 h of treatment and the in vitro antitumor potential of newly synthesized derivatives was compared to that of the reference metallo-drugs CDDP and OXP.

A498 cells = test: MTT cytotoxicity assay, A498; format: cell-based, human; conditions: A498, 72 h exposure, read-out: IC50 (median growth inhibitory concentration)
Protocol: (§5) Platinum(IV) complexes were dissolved in DMSO to stock solutions of 1 mg/mL just before the experiment, and a calculated amount of drug solution was added to the cell growth medium to a final solvent concentration of 0.5%, which had no discernible effect on cell killing. Cisplatin (CDDP) and oxaliplatin (OXP) were dissolved just before the experiment in a 0.9% NaCl solution.
(§6) Human prostate adenocarcinoma (PC3) cells were obtained from European Collection of Cell Cultures (ECACC, Salisbury, UK). Human ovarian cancer cell lines A2780 and its cisplatin resistant variant, A2780cisR, were kindly provided by Prof.
as §2

BxPC3 cells = test: MTT cytotoxicity assay, BxPC3; format: cell-based, human; conditions: BxPC3, 72 h exposure, MTT; read-out: IC50 (median growth inhibitory concentration)
A375 cells = test: MTT cytotoxicity assay, A375; format: cell-based, human
Protocol: as §1, §2, §3, §4

A2780 cells = test: MTT cytotoxicity assay, A2780; format: cell-based, human; conditions: A2780, 72 h exposure, MTT; read-out: IC50 (median growth inhibitory concentration)
Protocol: as §5, §6, §2

A2780cisR cells = test: MTT cytotoxicity assay, A2780cisR (cisplatin resistant); format: cell-based, human; conditions: A2780cisR, 72 h exposure, MTT; read-out: IC50 (median growth inhibitory concentration)
Protocol: as §5, §6, §2

MCF-7 cells = test: MTT cytotoxicity assay, MCF-7; format: cell-based, human; conditions: MCF-7, 72 h exposure, MTT; read-out: IC50 (median growth inhibitory concentration)
Protocol: (§7) Cisplatin (CDDP) and oxaliplatin (OXP) were dissolved just before the experiment in a 0.9% NaCl solution.
as §6
(§8) Triplicate cultures were established for each treatment.

PC3 cells = test: MTT cytotoxicity assay, PC3; format: cell-based, human; conditions: PC3, 72 h exposure, read-out: IC50 (median growth inhibitory concentration)
Protocol: as §7, §6, §8

A549 cells = test: MTT cytotoxicity assay, A549; format: cell-based, human; conditions: A549, 72 h exposure, MTT; read-out: IC50 (median growth inhibitory concentration)
Protocol: as §7, §6, §8

[1] = tested on: Histone deacetylase (HDAC); test: Histone deacetylase assay (Fluor-de-Lys) in MCF-7 cells; format: cell-based, human; conditions: MCF-7, 24 h, increasing concentrations; read-out: IC50 for cellular inhibition of HDAC activity
Protocol: Histone deacetylase activity was determined using Fluor-de-Lys® HDAC fluorometric activity assay kit (Enzo Life Sciences International, Inc., Plymount Meeting, Pa., U.S.A.). […] Fluorescence was measured using a Fluoroskan Ascent FL (Labsystem, Finland) plate reader, with excitation at 360 nm and emission at 460 nm. For comparison purpose, the HDAC activity was also measured in nuclear extracts of MCF-7-treated cells by means of the same fluorometric activity assay kit. In this latter case, MCF-7 nuclear extracts were obtained as follow: cell pellets were re-suspended in lysis buffer [Tris.HCl (10 mM, pH 8.0), KCl (60 mM), EDTA (1.2 mM), DTT (1 mM), PMSF (0.05 mM), NP-40 (0.05%)] and kept on ice for 10 min. Subsequently, samples were centrifuged at 1000 g and re-suspended in the nuclear extraction buffer [Tris.HCl (20 mM, (pH 8.0), NaCl (420 mM), MgCl2 (0.7 mM), EDTA (0.25 mM), glycerol (25%)] for 30 min at 4° C., and then centrifuged at 15000 g for 15 min at 4° C.
The complexes described here were specifically designed to release either VPA of PhB inside the cells in the hope that they will inhibit HDAC activity paving the way for more efficient DNA platination. Thus, in addition to measuring the levels of DNA platination, we also measured the ability of these pro-drugs to inhibit HDAC activity in cells. […] For comparison purposes, the HDAC inhibitory effect determined by tested complexes was also assayed in isolated nuclei of MCF-7 treated cells (FIG. 3B).
The HDAC activity was determined by the Fluor de Lys® Fluorescent Cellular Activity Assay (Enzo Life Sciences).
Also, MCF-7 cells were incubated for 24 h with increasing concentrations of compounds I-VIII and their HDAC activity was determined. The IC50 values for the inhibition of HDAC activity in the cells are depicted in FIG. 3C.

2008 cells = test: MTT cytotoxicity assay, 2008; format: cell-based, human; conditions: 2008, 72 h, MTT
Protocol: as §3, §4

H157 cells = test: MTT cytotoxicity assay, H157; format: cell-based, human; conditions: H157, 72 h
Protocol: as §3, §4

PSN-1 spheroids = test: 3D spheroid APH assay, PSN-1; format: cell-based, human; conditions: PSN-1 spheroids, 72 h, APH test
Source text: (§9) Acid phosphatase (APH) assay. A modified APH assay, which is based on quantification of cytosolic acid phosphatase activity, was used for determining cell viability in spheroids. […] Triplicate cultures were established for each treatment. […] Evaluation was based on means from at least four independent experiments.
(§10) In order to improve the predictive capacity of the in vitro assays, we tested the activity in three three-dimensional (3D) cell cultures; human colon cancer cells, HCT-15, and human pancreatic cancer cells, KRAS wild type BxPC3 cells KRAS mutated PSN-1 cells. The cancer spheroids were treated with 3a and 3b for 72 h and the cell viability was assessed by means of the APH assay (Table 6). For comparison purposes, the cytotoxicities of CDDP and OXP were evaluated under the same experimental conditions.

PSN1 cells = test: MTT cytotoxicity assay, PSN1; format: cell-based, human; conditions: PSN1, 72 h, MTT
Protocol: as §3, §4

A431 cells = test: MTT cytotoxicity assay, A431; format: cell-based, human; conditions: A431, 72 h
Protocol: as §3, §4

BxPC3 spheroids = test: 3D spheroid APH assay, BxPC3; format: cell-based, human; conditions: 72 h, APH test
Source text: as §9, §10

[2] = tested on: human embryonic kidney HEK293 cells; test: MTT cytotoxicity against non-tumor cells; format: cell-based
Protocol: as §3
The cytotoxic activity of derivatives 3a and 3b was also evaluated against non-tumor cells, namely human embryonic kidney HEK293 cells (Table 7). Both compounds 3a and 3b were more cytotoxic than CDDP.

HCT-15 spheroids = test: 3D spheroid APH assay, HCT-15; format: cell-based, human; conditions: HCT-15 spheroids, 72 h, APH test
Source text: as §9, §10

[3] = read-out: average IC50 values for the nine cancer cell lines, mean over nine cell lines, 72 h MTT
[4] = HCT-15, 72 h exposure, MTT (Table 1), read-out: IC50 (median growth inhibitory concentration)
[5] = A375, 72 h exposure, MTT (Table 1), read-out: IC50 (median growth inhibitory concentration)
[6] = HCT-15, 72 h, MTT (Table 5), read-out: IC50 (μM) ± S.D.
[7] = A375, 72 h, MTT (Table 5), read-out: IC50 (μM) ± S.D.

Molecule: CC(=O)[O][Pt]([NH2])([NH2])([Cl])([Cl])[O]C(=O)CCCc1ccccc1 [VII, Ctc-[Pt(NH3)2(C2H3O2)(C10H11O2)Cl2]]
- factors more potent than cisplatin (nine cancer cell lines; in five out of the nine cell lines): 2.1-9 fold
- IC50 (nine cancer cell lines; [3]): 4.8 µM
- IC50 (nine cancer cell lines; read-out: range of IC50 values over the cell lines, lowest-highest over nine cell lines): 0.65 to 10.1 µM
- IC50 (HCT-15 cells; [4]): 5.17 ± 0.85 µM
- IC50 (A498 cells): 8.42 ± 1.47 µM
- IC50 (BxPC3 cells): 10.1 ± 1.69 µM
- IC50 (A375 cells; [5]): 6.25 ± 1.94 µM
- IC50 (A2780 cells): 0.65 ± 0.04 µM
- IC50 (A2780cisR cells): 1.54 ± 0.27 µM
- IC50 (MCF-7 cells): 3.43 ± 0.14 µM
- IC50 (PC3 cells): 4.34 ± 1.25 µM
- IC50 (A549 cells): 7.16 ± 1.11 µM

Molecule: O=C(CCCc1ccccc1)[O][Pt]12([O]C(=O)CCCc3ccccc3)([NH]C3CCCCC3[NH]1)[O]C(=O)C(=O)[O]2 (stereo not shown) [VIII, [Pt(DACH)(C10H11O2)2(ox)]]
- IC50 (nine cancer cell lines; [3]): 6.81 µM
- IC50 (HCT-15 cells; [4]): 12.5 ± 1.13 µM
- IC50 (A498 cells): 9.32 ± 1.07 µM
- IC50 (BxPC3 cells): 7.64 ± 1.15 µM
- IC50 (A375 cells; [5]): 0.64 ± 0.13 µM
- IC50 (A2780 cells): 0.9 ± 0.08 µM
- IC50 (A2780cisR cells): 1.96 ± 0.44 µM
- IC50 (MCF-7 cells): 2.28 ± 0.46 µM
- IC50 (PC3 cells): 6.35 ± 1.19 µM
- IC50 (A549 cells): 19.6 ± 3.22 µM

- IC50 [1]: ~8000 µM
Molecule: CCCC(CCC)C(=O)O [VPA, valproic acid, reference compound]
- cytotoxicity IC50 values (in words) (nine cancer cell lines; uncoordinated ligands): millimolar range; also recorded: mM range

Molecule: Cc1c(C)c2c3c4c1=CC=C[N]4[Pt+2][N]3C=CC=2.N[C@H]1CCCC[C@@H]1N [[Pt(DACH)(56Phen)], reference compound]
- IC50 (2008 cells): 0.74 ± 0.12 µM
- IC50 (HCT-15 cells; [6]): 0.69 ± 0.11 µM
- IC50 (H157 cells): 0.16 ± 0.01 µM
- IC50 (PSN-1 spheroids): 55.5 ± 9.75 µM
- IC50 (A375 cells; [7]): 1.12 ± 0.42 µM
- IC50 (PSN1 cells): 0.25 ± 0.08 µM
- IC50 (A431 cells): 0.28 ± 0.08 µM
- IC50 (BxPC3 spheroids): 100 ± 12.1 µM
- IC50 ([2]; HEK293 non-tumor cells, 72 h, MTT): 1.12 ± 0.87 µM
- SI (selectivity index) ([2]; ratio between average IC50 of non-tumor cells and IC50 of malignant cells): 0.9
- IC50 (HCT-15 spheroids): 60.2 ± 2.92 µM

Molecule: c,c,t-[Pt(DACH)(56Phen)(PhBu)(Succ)]Cl2 [Compound 2a]
- IC50 (HCT-15 cells; [6]): 6.25 ± 3.08 µM
- IC50 (A375 cells; [7]): 1.57 ± 0.16 µM
- IC50 (PSN1 cells): 3.23 ± 1.12 µM
- IC50 (A431 cells): 4.15 ± 1.12 µM

Molecule: c,c,t-[Pt(NH3)2Cl2(DCA)(GABA)](TFA) [Compound 1a]
- IC50 (HCT-15 cells; [6]): 12.5 ± 3.58 µM
- IC50 (A375 cells; [7]): 2.81 ± 0.21 µM
- IC50 (PSN1 cells): 4.74 ± 2.87 µM
- IC50 (A431 cells): 4.98 ± 1.63 µM

From US20190290656A1, “PT(IV) PRODRUGS” (YISSUM RESEARCH DEVELOPMENT COMPANY OF THE HEBREW …, priority 2015, published 2019)
